Experimental data reported in PubChem BioAssay AID2060485 (Molecular Pharmacology Branch, DTP, NCI, 2025).

System: A375 multi-cell spheroids with HUVEC/MSC, viability
Assay: Anticancer human tumor A375 cell line growth inhibition [GQUAD];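 note: spheroids exposed to compounds for seven days before readout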
Details: for IC50: curve of first compound; for viability, T/C: stronger effect = lower value
Excerpt: DNA G-quadruplex Stabilizer Agents in Combinations in Complex Spheroids
A high-throughput screen of multi-cell type tumor spheroids was designed to identify active combinations of DNA G-quadruplex stabilizer agents and targeted small molecules. Complex spheroids include a stromal component modeled by human endothelial cells (HUVEC) and fibroblasts modeled by human mesenchymal stem cells (MSCs). The concentration ranges selected for each drug and investigational agent were based upon clinically achievable concentrations if the clinical Cmax of the agent was known.
Compounds. The drugs and investigational agents: pidnarulex (CX-5461; NSC782164), APTO-253 (NSC789042), BRACO-19 (NSC847499), peposertib (NSC802822), ceralasertib (NSC780249), elimusertib (NSC800525), camonsertib (NSC841442), AZD-1390 (NSC803789), olaparib (NSC753686), talazoparib (NSC767125), ART-558 (NSC835418), sotorasib (NSC818433), MRTX-1133 (NSC836407), SN-38 (NSC673596), topotecan (NSC609699), etoposide (NSC141540), doxorubicin (NSC123127), gemcitabine (NSC613327), 5-fluorouracil (NSC19893), paclitaxel (NSC125973), vemurafenib (NSC761431), panobinostat (NSC761190), R-306465 (JNJ-16241199; NSC773264), adavosertib (NSC754352), TP-3654 (NSC805149), carboplatin (NSC241240), KSQ-4279 (NSC840948), and staurosporine (NSC755774) were obtained from the National Cancer Institute (NCI) Developmental Therapeutics Program Chemical Repository (34). The FDA-approved anticancer drug set is available from the NCI Developmental Therapeutics Program. […] The stock solutions were prepared in dimethyl sulfoxide (DMSO, Sigma-Aldrich, St. Louis, MO, cat. D2650) at 800-fold the tested concentration and stored at -70 degrees C prior to their use. All drugs and investigational agents were tested over a range starting from a high concentration at or near the clinical Cmax and decreasing in half-log increments. If the clinical Cmax for an agent had not been determined, the highest concentration tested was 10 microM.
2.3 Cell Culture. All cells were maintained in an incubator at 37 degrees C and 5% CO2 with 95% humidity. The PDC lines were cultured according to standard operating procedures established by the NCI PDMR. All PDCs were thawed and cultured in Matrigel-coated flasks prepared with a working solution of 1X Ham's F-12 nutrient mix, without supplementation (Invitrogen, cat. 11765054), 100 U/mL penicillin-streptomycin (Invitrogen, cat. 15140122), and 2.5% Matrigel (Corning Inc., cat. 354248) for the first three passages. The 857933-349-R-J2-PDC line was cultured in 6C/Colon 1B media, which includes advanced DMEM/F-12 (Thermo Fisher Scientific, cat. 12634028), 10 mM HEPES (Thermo Fisher Scientific, cat. 15630080), 1X GlutaMAX supplement (Thermo Fisher Scientific, cat. 35050061), 0.1 mg/mL primocin (InvivoGen, cat. ant-pm-2), 10% defined fetal bovine serum, heat inactivated (HyClone Laboratories Inc., cat. SH30070.03HI), 50% L-WRN conditioned media (ATCC, cat. CRL-3276), 1.25 mM N-Acetyl-L-cysteine (Sigma-Aldrich, cat. A9165), 10 mM nicotinamide (Sigma-Aldrich, cat. N0636), 1X B-27 supplement (Thermo Fisher Scientific, cat. 17504044), 1X N-2 supplement (Thermo Fisher Scientific, cat. 17502048), 10 microM Y-27632 dihydrochloride (Tocris Bioscience, cat. 1254), and 50 ng/mL human EGF recombinant protein (Thermo Fisher Scientific, cat. PHG0311). The 485176-168-R4-J1-PDC line was cultured in Panc media, which includes all 6C/Colon 1B media components plus 100 ng/mL human FGF-10 (Thermo Fisher Scientific, cat. 100-26), 500 nM SB-431542 (Selleckchem, cat. S1067), and gastrin (Tocris, cat. 3006).
[…]

[1] = second compound 0.0316 µM, first compound 0.0316 µM
[2] = second compound 0.0316 µM, first compound 0.1 µM
[3] = second compound 0.0316 µM, first compound 0.316 µM
[4] = second compound 0.0316 µM, first compound 1 µM
[5] = second compound 0.0316 µM, first compound 3.16 µM
[6] = second compound 0.0316 µM, first compound 10 µM
[7] = second compound 0.1 µM, first compound 0.0316 µM
[8] = second compound 0.1 µM, first compound 0.1 µM
[9] = second compound 0.1 µM, first compound 0.316 µM
[10] = second compound 0.1 µM, first compound 1 µM
[11] = second compound 0.1 µM, first compound 3.16 µM
[12] = second compound 0.1 µM, first compound 10 µM
[13] = second compound 0.316 µM, first compound 0.0316 µM
[14] = second compound 0.316 µM, first compound 0.1 µM
[15] = second compound 0.316 µM, first compound 0.316 µM
[16] = second compound 0.316 µM, first compound 1 µM
[17] = second compound 0.316 µM, first compound 3.16 µM
[18] = second compound 0.316 µM, first compound 10 µM
[19] = second compound 1 µM, first compound 0.0316 µM
[20] = second compound 1 µM, first compound 0.1 µM
[21] = second compound 1 µM, first compound 0.316 µM
[22] = second compound 1 µM, first compound 1 µM
[23] = second compound 1 µM, first compound 3.16 µM
[24] = second compound 1 µM, first compound 10 µM
[25] = second compound 3.16 µM, first compound 0.0316 µM
[26] = second compound 3.16 µM, first compound 0.1 µM
[27] = second compound 3.16 µM, first compound 0.316 µM
[28] = second compound 3.16 µM, first compound 1 µM
[29] = second compound 3.16 µM, first compound 3.16 µM
[30] = second compound 3.16 µM, first compound 10 µM
[31] = second compound 10 µM, first compound 0.0316 µM
[32] = second compound 10 µM, first compound 0.1 µM
[33] = second compound 10 µM, first compound 0.316 µM
[34] = second compound 10 µM, first compound 1 µM
[35] = second compound 10 µM, first compound 3.16 µM
[36] = second compound 10 µM, first compound 10 µM

C#Cc1c(F)ccc2cc(O)cc(-c3ncc4c(N5CC6CCC(C5)N6)nc(OCC56CCCN5CC(F)C6)nc4c3F)c12 (centres undefined) + Cc1[nH]c2ccc(F)cc2c1-c1nc2c3cccnc3c3ncccc3c2[nH]1
IC50 (second compound 0.0316 µM): > 10 µM
IC50 (second compound 0.1 µM): > 10 µM
IC50 (second compound 0.316 µM): > 10 µM
IC50 (second compound 1 µM): > 10 µM
IC50 (second compound 3.16 µM): 5.37 µM
IC50 (second compound 10 µM): > 10 µM
viability, T/C [1]: 102%
viability, T/C [2]: 99.5%
viability, T/C [3]: 97.1%
viability, T/C [4]: 107%
viability, T/C [5]: 97.2%
viability, T/C [6]: 97.1%
viability, T/C [7]: 104%
viability, T/C [8]: 104%
viability, T/C [9]: 99.4%
viability, T/C [10]: 102%
viability, T/C [11]: 101%
viability, T/C [12]: 102%
viability, T/C [13]: 105%
viability, T/C [14]: 104%
viability, T/C [15]: 96.7%
viability, T/C [16]: 101%
viability, T/C [17]: 101%
viability, T/C [18]: 101%
viability, T/C [19]: 113%
viability, T/C [20]: 104%
viability, T/C [21]: 94.2%
viability, T/C [22]: 97.2%
viability, T/C [23]: 105%
viability, T/C [24]: 103%
viability, T/C [25]: 81.8%
viability, T/C [26]: 71.6%
viability, T/C [27]: 74.2%
viability, T/C [28]: 84.7%
viability, T/C [29]: 62.3%
viability, T/C [30]: 35.6%
viability, T/C [31]: 86.5%
viability, T/C [32]: 86.9%
viability, T/C [33]: 94.4%
viability, T/C [34]: 79.8%
viability, T/C [35]: 78%
viability, T/C [36]: 61.8%

CC(C)(O)C1CCC(Nc2ccc3ncc(-c4cccc(C(F)(F)F)c4)n3n2)CC1 (centres undefined) + Cc1[nH]c2ccc(F)cc2c1-c1nc2c3cccnc3c3ncccc3c2[nH]1
IC50 (second compound 0.0316 µM): > 10 µM
IC50 (second compound 0.1 µM): > 10 µM
IC50 (second compound 0.316 µM): > 10 µM
IC50 (second compound 1 µM): > 10 µM
IC50 (second compound 3.16 µM): 0.0667 µM
IC50 (second compound 10 µM): 0.845 µM
viability, T/C [1]: 99.5%
viability, T/C [2]: 100%
viability, T/C [3]: 96.5%
viability, T/C [4]: 112%
viability, T/C [5]: 94.4%
viability, T/C [6]: 92.1%
viability, T/C [7]: 103%
viability, T/C [8]: 110%
viability, T/C [9]: 97.3%
viability, T/C [10]: 113%
viability, T/C [11]: 84.7%
viability, T/C [12]: 87.6%
viability, T/C [13]: 98.5%
viability, T/C [14]: 102%
viability, T/C [15]: 105%
viability, T/C [16]: 100%
viability, T/C [17]: 77.6%
viability, T/C [18]: 86.1%
viability, T/C [19]: 106%
viability, T/C [20]: 104%
viability, T/C [21]: 101%
viability, T/C [22]: 93.6%
viability, T/C [23]: 47.4%
viability, T/C [24]: 73.7%
viability, T/C [25]: 49.7%
viability, T/C [26]: 52.3%
viability, T/C [27]: 39%
viability, T/C [28]: 30.2%
viability, T/C [29]: 10.4%
viability, T/C [30]: 20.4%
viability, T/C [31]: 76.7%
viability, T/C [32]: 82.9%
viability, T/C [33]: 72.3%
viability, T/C [34]: 46.9%
viability, T/C [35]: 16.2%
viability, T/C [36]: 42.3%
